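Five concentrations, 48 hours, 96-well plates. TGI: concentration producing complete growth inhibition.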 A value given as a limit tells only on which side of the number the result lay.

Here are results for six molecules from PubChem BioAssay (NCI).

Among the test systems are EKVX NSCLC; OVCAR-5 ovarian; HS 578T breast; SK-MEL-28 melanoma; HCT-15 colon; NCI-H522 lung; SNB-75 CNS; A498 renal; 786-0 renal; NCI-H23 lung; HOP-92 NSCLC; LOX IMVI melanoma.
What all share (assay): NCI-60 cell line screen, 48 h

As to `NC1=CN2c3ccccc3N(CC(=O)N3CCOCC3)C2C=C1` (configuration not stated), the TGI in the test on EKVX NSCLC, with OVCAR-5 ovarian, in the test on HS 578T breast, with SK-MEL-28 melanoma, in the test on HCT-15 colon and in the test on NCI-H522 lung was over 100 µM throughout. The TGI in the test with SNB-75 CNS, with A498 renal, in the test on 786-0 renal, with NCI-H23 lung, with HOP-92 NSCLC and in the test with LOX IMVI melanoma was over 100 µM each time.
Regarding `O=C(NC12CC3CC(CC(C3)C1)C2)n1cnc2cncnc21`, the TGI in the test with EKVX NSCLC was over 100 µM; in the test on OVCAR-5 ovarian, over 100 µM; in the test on HS 578T breast, over 100 µM; in the test with SK-MEL-28 melanoma, over 100 µM; in the test with HCT-15 colon, over 100 µM; with NCI-H522 lung, 53.8 µM. The TGI is over 100 µM with SNB-75 CNS; over 100 µM in the test on A498 renal; over 100 µM with 786-0 renal; over 100 µM with NCI-H23 lung; over 100 µM with HOP-92 NSCLC; 92 µM in the test with LOX IMVI melanoma.
As for `C/C(=N\NC(=S)N/N=C(\C)c1ccccn1)c1ccccn1`, the TGI with EKVX NSCLC was 84.3 µM; in the test with OVCAR-5 ovarian, over 100 µM; in the test on HS 578T breast it was over 100 µM; in the test with SK-MEL-28 melanoma, over 100 µM; with HCT-15 colon it was over 100 µM; in the test with NCI-H522 lung it was over 100 µM. Besides, the TGI with SNB-75 CNS is over 100 µM; in the test with A498 renal, 82.6 µM; in the test with 786-0 renal, over 100 µM; in the test on NCI-H23 lung it was over 100 µM; with HOP-92 NSCLC, over 100 µM; with LOX IMVI melanoma it was over 100 µM.
Take `Cc1cc(C)c2c(=O)n(CC(O)CN3CCN(c4ncccn4)CC3)sc2n1` (configuration not stated): the TGI in the test on EKVX NSCLC worked out at 29.5 µM; in the test on OVCAR-5 ovarian it was 31.1 µM; in the test with HS 578T breast it was 42.8 µM; in the test on SK-MEL-28 melanoma, 36.6 µM; with HCT-15 colon it was 35.4 µM; in the test with NCI-H522 lung, 26.6 µM. The TGI is 28.4 µM in the test on SNB-75 CNS; 31.1 µM in the test on A498 renal; 27.6 µM in the test on 786-0 renal; 31.6 µM in the test with NCI-H23 lung; over 100 µM with HOP-92 NSCLC; 33.7 µM in the test with LOX IMVI melanoma.
As to `CC1CN=C(c2ccc3c(c2)Cc2cc(C4=NCC(C)N4)ccc2-3)N1` (configuration not stated), the TGI in the test on EKVX NSCLC was over 100 µM; in the test with OVCAR-5 ovarian, over 100 µM; with HS 578T breast it was over 100 µM; in the test on SK-MEL-28 melanoma, over 100 µM; with HCT-15 colon, over 100 µM; with NCI-H522 lung, 57.4 µM. In addition, the TGI with SNB-75 CNS, in the test on A498 renal, with 786-0 renal, in the test with NCI-H23 lung, with HOP-92 NSCLC and in the test with LOX IMVI melanoma was over 100 µM throughout.
Take `CC(CCC(=O)O)(c1cc(Br)c(O)c(Br)c1)c1cc(Br)c(O)c(Br)c1`: the TGI with EKVX NSCLC, in the test on OVCAR-5 ovarian, with HS 578T breast, with SK-MEL-28 melanoma, in the test with HCT-15 colon and in the test with NCI-H522 lung was over 100 µM in each case. In addition, the TGI with SNB-75 CNS was over 100 µM; in the test with A498 renal, 87.7 µM; with 786-0 renal, over 100 µM; in the test on NCI-H23 lung it was over 100 µM; in the test on HOP-92 NSCLC it was over 100 µM; with LOX IMVI melanoma, over 100 µM.
